In the supplement of paper PMC8960247:
± gives the standard error.

Experiments:
[1] = system: 621-102 (TSC2-deficient); assay: relative viability vs DMSO; higher = less cytotoxic; details: serum: 10% FBS, 72 h
[2] = system: 621-103 (TSC2-rescued); assay: as above; details: serum: 10% FBS, 72 h
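Note: immortalized renal angiomyolipoma cells stably carrying empty vector or TSC2, dosed in 384-well plates in DMEM, viability normalized to vehicle-treated wells within each plate.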

Row | SMILES | relative viability ([1]; 0.0001 µM) [%] | relative viability ([1]; 0.001 µM) [%] | relative viability ([1]; 0.01 µM) [%] | relative viability ([1]; 0.1 µM) [%] | relative viability ([1]; 1 µM) [%] | relative viability ([1]; 10 µM) [%] | relative viability ([2]; 0.0001 µM) [%] | relative viability ([2]; 0.001 µM) [%] | relative viability ([2]; 0.01 µM) [%] | relative viability ([2]; 0.1 µM) [%] | relative viability ([2]; 1 µM) [%] | relative viability ([2]; 10 µM) [%]
1 | CC1(COc2ccc3c(c2)ncn3-c2ccc3cccc(N4CCC(N)CC4)c3n2)COC1 | 109 ± 1.2 | 98.7 ± 1.8 | 109 ± 4.7 | 98.43 ± 0.71 | 67.8 ± 1.8 | 2.96 ± 0.37 | 96 ± 0.22 | 111.5 ± 0.64 | 110 ± 3.6 | 106 ± 3.9 | 77.4 ± 2.8 | 4.95 ± 0.59
2 | CC1=NN(c2ccc(C)c(C)c2)C(=O)/C1=N\Nc1cccc(-c2cccc(C(=O)O)c2)c1O | 106.5 ± 0.35 | 104 ± 3.9 | 98.5 ± 2.5 | 108.4 ± 0.85 | 100.7 ± 0.44 | 83.7 ± 3.2 | 99.1 ± 1.1 | 103 ± 3.9 | 100.9 ± 0.81 | 99.8 ± 1 | 106.9 ± 0.69 | 90.7 ± 4
3 | CN(C)C(=O)[C@H](O)[C@H](Cc1ccccc1)NC(=O)c1cc2cc(Cl)ccc2[nH]1 | 103 ± 1.9 | 94.3 ± 1 | 111 ± 2.4 | 110 ± 5.4 | 89.6 ± 3.6 | 111.8 ± 0.78 | 112.8 ± 0.78 | 108 ± 2.3 | 108.2 ± 0.39 | 106 ± 1.7 | 106 ± 1.5 | 104 ± 1.8
4 | CN(C)Cc1cccc(N/C(=C2\C(=O)Nc3cc(C(N)=O)ccc32)c2ccccc2)c1 | 103 ± 1.7 | 107 ± 0.88 | 104 ± 2 | 103 ± 2.6 | 99.92 ± 0.15 | 87.26 ± 0.14 | 99.8 ± 1.5 | 97.2 ± 1.9 | 99.2 ± 1.1 | 97.28 ± 0.78 | 92.4 ± 6.5 | 84.9 ± 2.5
5 | CN(C)Cc1cccc(N=C(c2ccccc2)c2c(O)[nH]c3cc(C(=O)N(C)C)ccc23)c1 | 107 ± 1.5 | 106 ± 1.2 | 102 ± 1.4 | 100.76 ± 0.028 | 98.5 ± 6.6 | 93.3 ± 1.4 | 98.05 ± 0.44 | 99.6 ± 1.7 | 98.8 ± 1.2 | 99.48 ± 0.73 | 91.7 ± 5.7 | 47.4 ± 2.2
6 | CN(C)c1ccc(-c2nc3ncc(Cl)c(N4CCN(CC(=O)Nc5nccs5)CC4)c3[nH]2)cc1 | 104 ± 2.7 | 96.7 ± 1.2 | 102 ± 4 | 105 ± 1.4 | 101 ± 4.3 | 49.3 ± 1.4 | 101 ± 2.5 | 103.4 ± 0.042 | 101.06 ± 0.096 | 100.6 ± 0.64 | 97.243 ± 0.044 | 47.5 ± 2.9
7 | COC(=O)N[C@H](C(=O)N1CCC[C@H]1c1ncc(-c2ccc(-c3ccc(-c4cnc([C@@H]5CCCN5C(=O)[C@@H](NC(=O)OC)C(C)C)[nH]4)cc3)cc2)[nH]1)C(C)C | 103 ± 3.2 | 105 ± 0.22 | 106 ± 1.6 | 101 ± 3.8 | 96.21 ± 0.14 | 81.1 ± 2 | 100 ± 2.7 | 98.82 ± 0.6 | 100 ± 1.2 | 102 ± 2.3 | 99.4 ± 2.4 | 94.1 ± 1.9
8 | COCC(=O)NC/C=C/c1ccc2ncnc(Nc3ccc(Oc4ccc(C)nc4)c(C)c3)c2c1 | 100 ± 2.7 | 97.758 ± 0.079 | 97.3 ± 1.7 | 93.9 ± 1.9 | 98.9 ± 2.8 | 93.2 ± 2.4 | 101 ± 1.9 | 101.6 ± 0.36 | 103.06 ± 0.024 | 104 ± 1.2 | 103.7 ± 0.92 | 107.8 ± 0.28
9 | COc1cc2c(Nc3ccc(NC(=O)c4ccccc4)cc3)ncnc2cc1OCCCN1CCOCC1 | 97.1 ± 1.7 | 91.95 ± 0.3 | 108 ± 2 | 90.2 ± 5.2 | 79.6 ± 3.6 | 7.78 ± 0.95 | 104 ± 1.1 | 111 ± 4.9 | 104 ± 1.9 | 105 ± 1.6 | 95.8 ± 2.5 | 12.4 ± 0.25
10 | COc1cc2c(Oc3ccc(NC(=O)C4(C(=O)Nc5ccc(F)cc5)CC4)cc3F)ccnc2cc1OCCCN1CCOCC1 | 108 ± 7.4 | 111 ± 6.2 | 98 ± 5.1 | 102 ± 5.8 | 84.55 ± 0.78 | 2.81 ± 0.28 | 97.08 ± 0.89 | 97.1 ± 1.1 | 93.9 ± 3.7 | 91.72 ± 0.35 | 69.1 ± 1.5 | 1.1 ± 0.14
11 | COc1cc2ncnc(-n3nc(-c4ccccn4)nc3N)c2cc1OC | 101 ± 1.5 | 103 ± 2.7 | 107 ± 2.2 | 98.84 ± 0.53 | 94.28 ± 0.36 | 49.6 ± 1.6 | 106 ± 1.7 | 107 ± 2.5 | 109 ± 4 | 108.3 ± 0.77 | 110.4 ± 0.79 | 48.2 ± 3.8
12 | COc1ccc([C@]2(C#N)CC[C@@H](C(=O)O)CC2)cc1OC1CCCC1 | 96.5 ± 2.4 | 102.9 ± 0.13 | 95.4 ± 2.6 | 102 ± 2.7 | 105 ± 1.7 | 98.6 ± 0.28 | 102.2 ± 0.093 | 98 ± 0.98 | 97.1 ± 1.8 | 106.2 ± 0.53 | 93.85 ± 0.76 | 93.4 ± 2.3
13 | COc1ccnc2[nH]cc(C(=O)C(=O)N3CCN(C(=O)c4ccccc4)C[C@H]3C)c12 | 105 ± 6.5 | 106 ± 3.8 | 111 ± 2.5 | 107 ± 2.7 | 86 ± 1.2 | 88.5 ± 5.7 | 112 ± 3.3 | 112 ± 1.2 | 108 ± 1.6 | 103 ± 1.8 | 106 ± 1.2 | 115 ± 1.5
14 | C[C@@H]1CCN(C(=O)CC#N)C[C@@H]1N(C)c1ncnc2[nH]ccc12 | 113 ± 2.6 | 98.5 ± 1.1 | 106 ± 4.8 | 109 ± 1.1 | 98.6 ± 2.7 | 104 ± 1.3 | 104 ± 4.3 | 100 ± 2.5 | 99.134 ± 0.051 | 102 ± 2.4 | 107 ± 0.27 | 96.7 ± 1.1
15 | Cc1[nH]nc2ccc(-c3cncc(OC[C@@H](N)Cc4ccccc4)c3)cc12 | 114.1 ± 0.3 | 108 ± 3.1 | 97.8 ± 2.1 | 99.05 ± 0.49 | 66.5 ± 1.1 | 2.57 ± 0.016 | 98.7 ± 4.7 | 89.14 ± 0.74 | 95.77 ± 0.18 | 101 ± 4 | 62.2 ± 1 | 6.08 ± 0.71
16 | Cc1c(NC(=O)OC[C@@H]2COCCN2)cn2ncnc(Nc3ccc4c(cnn4Cc4cccc(F)c4)c3)c12 | 101 ± 2.7 | 104 ± 2 | 97.6 ± 2 | 104.2 ± 0.79 | 96.3 ± 2.8 | 81.33 ± 0.65 | 100.9 ± 0.54 | 100 ± 1.2 | 102 ± 1.5 | 101.3 ± 0.88 | 101 ± 1.9 | 82.5 ± 5.9
17 | Cc1ccc(NC(=O)c2cccc(N(C)C)c2)cc1NC(=O)c1ccc(O)cc1 | 90.2 ± 2 | 102 ± 2.6 | 100.2 ± 0.28 | 109 ± 5 | 109 ± 5.4 | 92.1 ± 6 | 104.9 ± 0.89 | 102 ± 4 | 101 ± 3.8 | 101 ± 4.5 | 94.6 ± 5 | 98.9 ± 1.4
18 | Cn1c(N2CCCCS2(=O)=O)nc(C(=O)NCc2ccc(F)cc2)c(O)c1=O | 104 ± 2.9 | 106 ± 1.5 | 106 ± 1.5 | 102 ± 1.9 | 108.8 ± 0.34 | 99.97 ± 0.61 | 99.8 ± 2.4 | 105.9 ± 0.6 | 101 ± 2.4 | 101 ± 2.1 | 100.8 ± 0.82 | 100 ± 1.4
19 | N#Cc1c(O)c2c(-c3ccc(-c4ccccc4O)cc3)csc2[nH]c1=O | 87.4 ± 2.6 | 101.1 ± 0.29 | 99.8 ± 4.8 | 93.17 ± 0.38 | 98.55 ± 0.91 | 87.2 ± 3.2 | 99.2 ± 3.3 | 95.56 ± 0.75 | 96.1 ± 3.5 | 97.25 ± 0.34 | 100.3 ± 0.89 | 105 ± 3.5
